Test results: paper PMC8570587 (Medicinal chemistry research : an international journal for …, 2021)

Key:
[1] = ORAC antioxidant assay; assay type: physicochemical; conditions: read-out: ORAC antioxidant EC50; positive control
[2] = molecular target: T1, recombinant human MAO-B (Homo sapiens, UniProt P27338); experiment: MAO-B enzyme inhibition assay; assay type: biochemical
T1 sequence (P27338 1-520): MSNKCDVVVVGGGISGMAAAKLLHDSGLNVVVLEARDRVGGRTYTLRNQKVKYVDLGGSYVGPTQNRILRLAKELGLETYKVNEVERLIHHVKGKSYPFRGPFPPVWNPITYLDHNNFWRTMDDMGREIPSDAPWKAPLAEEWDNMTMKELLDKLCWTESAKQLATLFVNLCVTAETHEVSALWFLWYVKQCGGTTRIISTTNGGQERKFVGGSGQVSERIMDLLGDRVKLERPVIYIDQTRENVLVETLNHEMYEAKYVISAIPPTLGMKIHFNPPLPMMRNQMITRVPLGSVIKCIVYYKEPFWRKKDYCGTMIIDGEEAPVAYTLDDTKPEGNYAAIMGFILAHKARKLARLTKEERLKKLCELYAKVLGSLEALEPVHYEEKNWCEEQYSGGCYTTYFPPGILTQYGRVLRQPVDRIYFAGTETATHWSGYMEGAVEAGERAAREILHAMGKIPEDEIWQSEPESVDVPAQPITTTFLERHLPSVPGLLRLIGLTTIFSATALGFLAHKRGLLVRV

Structure (SMILES)	EC50 [1] [µM]	IC50 [2] [µM]
O=C1O[C@H]([C@@H](O)CO)C(O)=C1O [Vitamin C]	25.9	
NS(=O)(=O)Cc1noc2ccccc12 [Zonisamide]		22.6
